The target of this assay is T1, recombinant human GR (Homo sapiens, UniProt P04150).
T1 construct: purchased Panvera/Invitrogen P2812 (kit P2893)
T1 sequence (P04150 1-777): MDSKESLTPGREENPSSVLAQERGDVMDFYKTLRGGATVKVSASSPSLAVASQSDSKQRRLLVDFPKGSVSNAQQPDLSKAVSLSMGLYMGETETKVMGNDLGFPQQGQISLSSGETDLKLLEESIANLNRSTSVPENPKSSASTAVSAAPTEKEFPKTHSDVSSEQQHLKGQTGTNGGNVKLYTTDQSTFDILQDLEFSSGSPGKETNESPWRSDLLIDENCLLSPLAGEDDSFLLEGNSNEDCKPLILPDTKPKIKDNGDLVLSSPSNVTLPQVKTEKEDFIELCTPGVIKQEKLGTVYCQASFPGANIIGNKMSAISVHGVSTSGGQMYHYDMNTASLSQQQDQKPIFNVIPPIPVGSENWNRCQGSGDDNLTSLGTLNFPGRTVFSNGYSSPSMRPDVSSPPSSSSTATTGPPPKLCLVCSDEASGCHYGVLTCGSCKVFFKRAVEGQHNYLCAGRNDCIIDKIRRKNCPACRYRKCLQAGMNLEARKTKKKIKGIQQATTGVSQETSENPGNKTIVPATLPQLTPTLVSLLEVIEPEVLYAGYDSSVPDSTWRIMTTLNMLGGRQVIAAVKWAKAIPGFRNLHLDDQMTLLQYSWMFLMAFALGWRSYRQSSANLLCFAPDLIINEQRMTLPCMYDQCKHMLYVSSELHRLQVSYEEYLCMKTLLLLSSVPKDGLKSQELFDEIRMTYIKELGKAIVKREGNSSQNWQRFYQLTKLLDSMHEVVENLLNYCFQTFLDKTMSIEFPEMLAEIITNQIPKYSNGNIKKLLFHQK
The assay is described as follows: Human Glucocorticoid Receptor (GR) Assay, fluorescence polarization (GRhuFL_FP_v2, GR-binders). It is filed as binding. On the procedure:
Human Glucocorticoid Receptor (GR) Assay
The assay is based on a commercial kit from Panvera/Invitrogen (Part number P2893). The assay technology is fluorescence polarization. […] The GR and Stabilizing Peptide reagents are stored at −70° C. while the GS Red is stored at −20° C. Also included in the kit are 1M DTT (Panvera, Part number P2325, stored at −20° C.) and GR Screening buffer 10× (Panvera, Part number P2814, stored at −70° C. initially but once thawed stored at room temperature). Avoid repeated freeze/thaws for all reagents. The GR Screening buffer 10× comprises 100 mM potassium phosphate, 200 mM sodium molybdate, 1 mM EDTA and 20% DMSO.
0% control was 100% DMSO and 100% control was 10 μM Dexamethasone. Background solution (8 μL; assay buffer 10×, Stabilizing Peptide, DTT and ice cold MQ water) was added to the background wells. GS Red solution (7 μL; assay buffer 10×, Stabilizing Peptide, DTT, GS Red and ice cold water) was added to all wells except background wells. GR solution (7 μL; assay buffer 10×, Stabilizing Peptide, DTT, GR and ice cold water) was added to all wells. The plate was sealed and incubated in a dark at room temperature for 2 hours.
(Polarisation of emitted light reports the rotation of a fluorescent probe.)

A word on the IC50: it is the concentration that gives 50% inhibition. As to `Cc1cc(C)c(S(=O)(=O)NCC(C)(C)Nc2cccc3c2cnn3-c2ccc(F)cc2)c(C)c1` [Example 55, N-[2-[[1-(4-Fluorophenyl)indazol-4-yl]amino]-2-methylpropyl]-2,4,6-trimethyl-benzenesulfonamide], the IC50 came to 24 nM.

The values above are taken from patent US20090124607A1, “Novel Bicyclic Sulfonamides for Use as Glucocorticoid Receptor Modulators in the Treatment of Inflammatory Diseases” (priority 2005, published 2009).
